Experimental data taken from patent US20240115571A1, “COMBINATION THERAPY FOR TREATING ABNORMAL CELL GROWTH” (priority 2021, published 2024).

Test system: EGFR mutant H1975 osimertinib-resistant (Dell9/T790M/C797S) NSCLC model
Test: H1975 osimertinib-resistant xenograft tumor mouse study
Format: in vivo, Balb/c nude mice
Conditions: VS-6766 0.3 mg/kg PO QD; osimertinib 2.5 mg/kg QD
Description: EGFR mutant H1975 NSCLC tumor cells were obtained from ATCC, EGFR mutant H1975 osimertinib-resistant NSCLC tumor cells were generated by Wuxi AppTec, and Balb/c nude mice were obtained from Beijing Vital River Laboratory Animal Technology. Tumor challenge was initiated by subcutaneous inoculation of 5×10^6 tumor cell suspensions into the right flank of recipient mice.
Tumor sizes (mm^3) and body weights were measured 2 times per week for the duration of the study. At the time of routine monitoring, the animals were checked for any effects of tumor growth and treatments on normal behavior such as mobility, food and water consumption (by looking only), and body weight gain/loss, eye/hair matting and any other abnormal effect.

## CNS(=O)(=O)Nc1nccc(Cc2c(C)c3ccc(Oc4ncccn4)cc3oc2=O)c1F [VS-6766]
  survival compared to osimertinib single agent: increased
  tumor growth inhibition compared to osimertinib single agent: increased tumor growth inhibition
